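Method: 48-hour compound exposure of cells in 96-well plates, five concentrations, linear interpolation of endpoints. GI50 marks 50% less growth. TGI denotes the concentration required for complete inhibition of growth.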
Assays:
Test in all cases: NCI anticancer screen, dose series, 48 h
HOP-92 NSCLC = test system: HOP-92 NSCLC
SK-MEL-28 melanoma = test system: SK-MEL-28 melanoma
CAKI-1 renal = test system: CAKI-1 renal
M14 melanoma = test system: M14 melanoma
ACHN renal = test system: ACHN renal
K-562 leukemia = test system: K-562 leukemia
UACC-62 melanoma = test system: UACC-62 melanoma
SK-MEL-2 melanoma = test system: SK-MEL-2 melanoma
HOP-62 NSCLC = test system: HOP-62 NSCLC
RPMI-8226 leukemia = test system: RPMI-8226 leukemia
T-47D breast = test system: T-47D breast
A549 NSCLC = test system: A549 NSCLC
SK-OV-3 ovarian = test system: SK-OV-3 ovarian
NCI-H460 lung = test system: NCI-H460 lung
SR leukemia = test system: SR leukemia
786-0 renal = test system: 786-0 renal
SF-268 CNS = test system: SF-268 CNS
SW-620 colon = test system: SW-620 colon
IGROV1 ovarian = test system: IGROV1 ovarian
U251 CNS = test system: U251 CNS
MOLT-4 leukemia = test system: MOLT-4 leukemia
MDA-MB-435 = test system: MDA-MB-435
RXF 393 renal = test system: RXF 393 renal
COLO 205 colon = test system: COLO 205 colon
CCRF-CEM leukemia = test system: CCRF-CEM leukemia
SNB-75 CNS = test system: SNB-75 CNS
MALME-3M melanoma = test system: MALME-3M melanoma
MCF7 breast = test system: MCF7 breast
NCI/ADR-RES ovarian = test system: NCI/ADR-RES ovarian
HL-60(TB) leukemia = test system: HL-60(TB) leukemia
OVCAR-4 ovarian = test system: OVCAR-4 ovarian
SK-MEL-5 melanoma = test system: SK-MEL-5 melanoma
NCI-H23 lung = test system: NCI-H23 lung
HCT-15 colon = test system: HCT-15 colon
UO-31 renal = test system: UO-31 renal
SF-539 CNS = test system: SF-539 CNS
PC-3 prostate = test system: PC-3 prostate
MDA-MB-231 breast = test system: MDA-MB-231 breast
TK-10 renal = test system: TK-10 renal
SNB-19 CNS = test system: SNB-19 CNS
NCI-H226 lung = test system: NCI-H226 lung
HS 578T breast = test system: HS 578T breast
LOX IMVI melanoma = test system: LOX IMVI melanoma
BT-549 breast = test system: BT-549 breast
KM12 colon = test system: KM12 colon
OVCAR-5 ovarian = test system: OVCAR-5 ovarian
UACC-257 melanoma = test system: UACC-257 melanoma
SN12C renal = test system: SN12C renal
EKVX NSCLC = test system: EKVX NSCLC
HCC-2998 colon = test system: HCC-2998 colon
DU-145 prostate = test system: DU-145 prostate
HT29 colon = test system: HT29 colon
SF-295 CNS = test system: SF-295 CNS
HCT-116 colon = test system: HCT-116 colon
NCI-H522 lung = test system: NCI-H522 lung
OVCAR-3 ovarian = test system: OVCAR-3 ovarian
OVCAR-8 ovarian = test system: OVCAR-8 ovarian
A498 renal = test system: A498 renal

## CCOC(=O)C1(C(=O)OCC)CCC(C(OC)OC)C(CC(=O)OC)C1 (stereo unspecified)
HOP-92 NSCLC
  TGI: > 10 µM
SK-MEL-28 melanoma
  TGI: > 10 µM
CAKI-1 renal
  TGI: > 10 µM
M14 melanoma
  TGI: > 10 µM
ACHN renal
  TGI: > 10 µM
K-562 leukemia
  TGI: > 10 µM
UACC-62 melanoma
  TGI: > 10 µM
SK-MEL-2 melanoma
  TGI: > 10 µM
HOP-62 NSCLC
  TGI: > 10 µM
RPMI-8226 leukemia
  TGI: > 10 µM
T-47D breast
  TGI: > 10 µM
A549 NSCLC
  TGI: > 10 µM
SK-OV-3 ovarian
  TGI: > 10 µM
NCI-H460 lung
  TGI: > 10 µM
SR leukemia
  TGI: > 10 µM
786-0 renal
  TGI: > 10 µM
SF-268 CNS
  TGI: > 10 µM
SW-620 colon
  TGI: > 10 µM
IGROV1 ovarian
  TGI: > 10 µM
U251 CNS
  TGI: > 10 µM
MOLT-4 leukemia
  TGI: > 10 µM
MDA-MB-435
  TGI: > 10 µM
RXF 393 renal
  TGI: > 10 µM
COLO 205 colon
  TGI: > 10 µM
CCRF-CEM leukemia
  TGI: > 10 µM
SNB-75 CNS
  TGI: > 10 µM
MALME-3M melanoma
  TGI: > 10 µM
MCF7 breast
  TGI: > 10 µM
NCI/ADR-RES ovarian
  TGI: > 10 µM
HL-60(TB) leukemia
  TGI: > 10 µM
OVCAR-4 ovarian
  TGI: > 10 µM
SK-MEL-5 melanoma
  TGI: > 10 µM
NCI-H23 lung
  TGI: > 10 µM

## CCCCCCc1cc2cc(-c3csc(-c4ccc(OC)cc4)n3)c(=O)oc2cc1O
HCT-15 colon
  TGI: 46.8 µM
UO-31 renal
  TGI: 19.8 µM
HOP-92 NSCLC
  TGI: 16.2 µM
SK-MEL-28 melanoma
  TGI: 24.6 µM
SF-539 CNS
  TGI: 25.6 µM
CAKI-1 renal
  TGI: 20 µM
PC-3 prostate
  TGI: 41.5 µM
MDA-MB-231 breast
  TGI: 25.3 µM
M14 melanoma
  TGI: 27.5 µM
ACHN renal
  TGI: 25.1 µM
K-562 leukemia
  TGI: > 100 µM
UACC-62 melanoma
  TGI: 24.6 µM
TK-10 renal
  TGI: 34.1 µM
SK-MEL-2 melanoma
  TGI: 32 µM
SNB-19 CNS
  TGI: 36 µM
HOP-62 NSCLC
  TGI: 29.6 µM
RPMI-8226 leukemia
  TGI: > 100 µM
T-47D breast
  TGI: 24.1 µM
A549 NSCLC
  TGI: 32.8 µM
SK-OV-3 ovarian
  TGI: 33.1 µM
NCI-H460 lung
  TGI: 41 µM
NCI-H226 lung
  TGI: 30.6 µM
HS 578T breast
  TGI: 60.7 µM
SR leukemia
  TGI: > 100 µM
786-0 renal
  TGI: 18 µM
SF-268 CNS
  TGI: 14.9 µM
LOX IMVI melanoma
  TGI: 30.4 µM
SW-620 colon
  TGI: 34.3 µM
IGROV1 ovarian
  TGI: 19.1 µM
BT-549 breast
  TGI: 7.38 µM
KM12 colon
  TGI: 68.2 µM
OVCAR-5 ovarian
  TGI: 79.9 µM
U251 CNS
  TGI: 18.7 µM
UACC-257 melanoma
  TGI: 32.6 µM
SN12C renal
  TGI: 23.6 µM
EKVX NSCLC
  TGI: 45.1 µM
HCC-2998 colon
  TGI: 31.5 µM
MOLT-4 leukemia
  TGI: > 100 µM
DU-145 prostate
  TGI: 33.6 µM
MDA-MB-435
  TGI: 18.4 µM
HT29 colon
  TGI: > 100 µM
RXF 393 renal
  TGI: 29.2 µM
COLO 205 colon
  TGI: > 100 µM
CCRF-CEM leukemia
  TGI: > 100 µM
SNB-75 CNS
  TGI: 47.2 µM
MCF7 breast
  TGI: 53.2 µM
HL-60(TB) leukemia
  TGI: > 100 µM
OVCAR-4 ovarian
  TGI: 7.39 µM
SK-MEL-5 melanoma
  TGI: 47.7 µM
SF-295 CNS
  TGI: 28.5 µM
HCT-116 colon
  TGI: 20.1 µM

## COc1cc2cc(Oc3ccc(NC(=O)c4cccc(C(F)(F)F)c4)cc3)c(C)nc2cc1OC
HCT-15 colon
  GI50: 4.65 µM
  TGI: > 100 µM
UO-31 renal
  GI50: 4.59 µM
  TGI: > 100 µM
HOP-92 NSCLC
  GI50: 3.08 µM
  TGI: 33.2 µM
SK-MEL-28 melanoma
  GI50: 6.61 µM
  TGI: > 100 µM
SF-539 CNS
  GI50: 8.35 µM
  TGI: > 100 µM
CAKI-1 renal
  GI50: 2.75 µM
  TGI: > 100 µM
NCI-H522 lung
  GI50: 2.81 µM
  TGI: > 100 µM
OVCAR-3 ovarian
  GI50: 3.96 µM
  TGI: 45.5 µM
PC-3 prostate
  GI50: 2.85 µM
  TGI: > 100 µM
MDA-MB-231 breast
  GI50: 3.38 µM
  TGI: 46.6 µM
M14 melanoma
  GI50: 4.02 µM
  TGI: > 100 µM
ACHN renal
  GI50: 3.6 µM
  TGI: > 100 µM
K-562 leukemia
  GI50: 4.25 µM
  TGI: > 100 µM
UACC-62 melanoma
  GI50: 5.27 µM
  TGI: > 100 µM
TK-10 renal
  GI50: 5.18 µM
  TGI: > 100 µM
SK-MEL-2 melanoma
  GI50: 5.11 µM
  TGI: > 100 µM
SNB-19 CNS
  GI50: 8.09 µM
  TGI: > 100 µM
HOP-62 NSCLC
  GI50: 21.6 µM
  TGI: > 100 µM
RPMI-8226 leukemia
  GI50: 3.67 µM
  TGI: > 100 µM
T-47D breast
  GI50: 3.23 µM
  TGI: > 100 µM
A549 NSCLC
  GI50: 4.28 µM
  TGI: > 100 µM
SK-OV-3 ovarian
  GI50: > 100 µM
  TGI: > 100 µM
NCI-H460 lung
  GI50: 4.07 µM
  TGI: > 100 µM
NCI-H226 lung
  GI50: 7.84 µM
  TGI: > 100 µM
HS 578T breast
  GI50: 2.97 µM
  TGI: 58.4 µM
SR leukemia
  GI50: 3.25 µM
  TGI: > 100 µM
786-0 renal
  GI50: 5.31 µM
  TGI: > 100 µM
SF-268 CNS
  GI50: > 100 µM
  TGI: > 100 µM
LOX IMVI melanoma
  GI50: 4.36 µM
  TGI: > 100 µM
SW-620 colon
  GI50: 10.2 µM
  TGI: > 100 µM
IGROV1 ovarian
  GI50: 6.78 µM
  TGI: > 100 µM
BT-549 breast
  GI50: 3.31 µM
  TGI: > 100 µM
KM12 colon
  GI50: 4.03 µM
  TGI: > 100 µM
OVCAR-5 ovarian
  GI50: > 100 µM
  TGI: > 100 µM
U251 CNS
  GI50: 4.44 µM
  TGI: > 100 µM
UACC-257 melanoma
  GI50: 5.41 µM
  TGI: > 100 µM
SN12C renal
  GI50: 6.39 µM
  TGI: > 100 µM
EKVX NSCLC
  GI50: 4.39 µM
  TGI: > 100 µM
HCC-2998 colon
  GI50: 8.03 µM
  TGI: > 100 µM
OVCAR-8 ovarian
  GI50: 6.91 µM
  TGI: > 100 µM
MOLT-4 leukemia
  GI50: 4.72 µM
  TGI: > 100 µM
DU-145 prostate
  GI50: 8.48 µM
  TGI: > 100 µM
MDA-MB-435
  GI50: 5.39 µM
  TGI: > 100 µM
HT29 colon
  GI50: 6.65 µM
  TGI: > 100 µM
RXF 393 renal
  GI50: 6.07 µM
  TGI: > 100 µM
COLO 205 colon
  GI50: 4.65 µM
  TGI: > 100 µM
MALME-3M melanoma
  GI50: > 100 µM
  TGI: > 100 µM
MCF7 breast
  GI50: 3.47 µM
  TGI: 24.3 µM
NCI/ADR-RES ovarian
  GI50: 4.02 µM
  TGI: > 100 µM
HL-60(TB) leukemia
  GI50: 3.84 µM
  TGI: > 100 µM
OVCAR-4 ovarian
  GI50: 3.68 µM
  TGI: > 100 µM
SK-MEL-5 melanoma
  GI50: 2.45 µM
  TGI: 8.84 µM
NCI-H23 lung
  GI50: 4.11 µM
  TGI: > 100 µM
A498 renal
  GI50: 1.78 µM
  TGI: 65 µM
SF-295 CNS
  GI50: 2.73 µM
  TGI: > 100 µM
HCT-116 colon
  GI50: 3.22 µM
  TGI: > 100 µM
